Measurements: ChEMBL document CHEMBL1140902 (J Med Chem, 2009)

Tests used:
[1] = molecular target: T1, Progesterone receptor (Homo sapiens, UniProt P06401); experiment: Antagonist activity at progesterone receptor in human T47D cells assessed as inhibition of progesterone-induced alkaline phosphatase activity after 48 hrs; format: functional, cell-based
T1 sequence (P06401 whole entry): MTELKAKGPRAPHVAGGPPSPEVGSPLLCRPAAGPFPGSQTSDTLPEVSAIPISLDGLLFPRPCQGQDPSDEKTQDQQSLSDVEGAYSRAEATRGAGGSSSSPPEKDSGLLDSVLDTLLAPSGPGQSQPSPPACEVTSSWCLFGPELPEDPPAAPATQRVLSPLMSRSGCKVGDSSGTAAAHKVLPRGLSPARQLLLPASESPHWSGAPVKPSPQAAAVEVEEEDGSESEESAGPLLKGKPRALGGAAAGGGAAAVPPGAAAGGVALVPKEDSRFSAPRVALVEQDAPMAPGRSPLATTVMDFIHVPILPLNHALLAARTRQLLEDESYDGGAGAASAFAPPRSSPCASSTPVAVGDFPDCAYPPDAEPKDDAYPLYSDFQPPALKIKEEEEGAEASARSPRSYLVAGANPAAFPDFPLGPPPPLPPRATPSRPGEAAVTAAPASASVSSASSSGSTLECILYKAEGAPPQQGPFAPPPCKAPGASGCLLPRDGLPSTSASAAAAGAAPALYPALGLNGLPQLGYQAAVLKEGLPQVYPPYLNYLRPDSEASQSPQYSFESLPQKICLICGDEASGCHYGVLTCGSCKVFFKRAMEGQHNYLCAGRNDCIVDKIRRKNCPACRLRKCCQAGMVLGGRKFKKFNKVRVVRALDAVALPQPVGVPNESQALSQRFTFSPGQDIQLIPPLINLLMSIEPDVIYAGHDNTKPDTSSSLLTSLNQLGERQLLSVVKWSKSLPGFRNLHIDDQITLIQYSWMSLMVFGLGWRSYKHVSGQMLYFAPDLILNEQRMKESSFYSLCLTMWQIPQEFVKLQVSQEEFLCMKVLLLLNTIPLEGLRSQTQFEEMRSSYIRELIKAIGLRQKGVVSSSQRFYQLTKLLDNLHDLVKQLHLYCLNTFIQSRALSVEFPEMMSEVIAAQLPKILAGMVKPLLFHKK

[2] = molecular target: T1, Progesterone receptor; experiment: Antagonist activity at progesterone receptor in human T47D-C124 cells transfected with luciferase gene linked to MMTV promoter assessed as inhibition of progesterone-induced luciferase transactivation activity after 24 hrs; format: functional, cell-based

Compound | IC50 [1] | IC50 [2]
CC#C[C@]1(O)CC[C@H]2[C@@H]3CCC4=CC(=O)CCC4=C3[C@@H](c3ccc(OC)cc3)C[C@@]21C | 0.095 nM | 
CC#C[C@]1(O)CC[C@H]2[C@@H]3CCC4=CC(=O)CCC4=C3[C@@H](c3ccc(N(C)CCCCCCCCCCC(=O)O)cc3)C[C@@]21C | 0.46 nM | 
CC#C[C@]1(O)CC[C@H]2[C@@H]3CCC4=CC(=O)CCC4=C3[C@@H](c3ccc(N(C)CCCCCC(N)=O)cc3)C[C@@]21C | 0.55 nM | 
CC#C[C@]1(O)CC[C@H]2[C@@H]3CCC4=CC(=O)CCC4=C3[C@@H](c3ccc(N(C)CCCOC(=O)CCC(=O)O)cc3)C[C@@]21C | 2.1 nM | 
CC#C[C@]1(O)CC[C@H]2[C@@H]3CCC4=CC(=O)CCC4=C3[C@@H](c3ccc(N(C)C(=O)CCCC(=O)OC)cc3)C[C@@]21C | 1.55 nM | 
CC#C[C@]1(O)CC[C@H]2[C@@H]3CCC4=CC(=O)CCC4=C3[C@@H](c3ccc(N(C)C(=O)Nc4ccc(Cl)cc4)cc3)C[C@@]21C | 0.27 nM | 
CC#C[C@]1(O)CC[C@H]2[C@@H]3CCC4=CC(=O)CCC4=C3[C@@H](c3ccc(N(C)CCCCCCCCCCC(=O)OC)cc3)C[C@@]21C | 0.63 nM | 
CC#C[C@]1(O)CC[C@H]2[C@@H]3CCC4=CC(=O)CCC4=C3[C@@H](c3ccc(N(C)C(=O)NCCCCCC(=O)OC)cc3)C[C@@]21C | 2.2 nM | 
CC#C[C@]1(O)CC[C@H]2[C@@H]3CCC4=CC(=O)CCC4=C3[C@@H](c3ccc(N(C)CCCCCCOC(=O)CCC(=O)O)cc3)C[C@@]21C | 0.25 nM | 
CC#C[C@]1(O)CC[C@H]2[C@@H]3CCC4=CC(=O)CCC4=C3[C@@H](c3ccc(N(C)CCCCCC(=O)O)cc3)C[C@@]21C | 0.44 nM | 
CC#C[C@]1(O)CC[C@H]2[C@@H]3CCC4=CC(=O)CCC4=C3[C@@H](c3ccc(N(C)C(=O)NCCCC)cc3)C[C@@]21C | 0.79 nM | 
CC#C[C@]1(O)CC[C@H]2[C@@H]3CCC4=CC(=O)CCC4=C3[C@@H](c3ccc(N(C)CCCCCC=O)cc3)C[C@@]21C | 0.15 nM | 
CC#C[C@]1(O)CC[C@H]2[C@@H]3CCC4=CC(=O)CCC4=C3[C@@H](c3ccc(N(C)CCC(=O)O)cc3)C[C@@]21C | 34 nM | 
CC#C[C@]1(O)CC[C@H]2[C@@H]3CCC4=CC(=O)CCC4=C3[C@@H](c3ccc(N(C)C(=O)NCCCCCC(=O)N[C@@H](CC(C)C)C(=O)OC(C)(C)C)cc3)C[C@@]21C | 1.7 nM | 
CC#C[C@]1(O)CC[C@H]2[C@@H]3CCC4=CC(=O)CCC4=C3[C@@H](c3ccc(N(C)C(=S)NCCCC)cc3)C[C@@]21C | 0.73 nM | 
CC#C[C@]1(O)CC[C@H]2[C@@H]3CCC4=CC(=O)CCC4=C3[C@@H](c3ccc(N(C)C(=O)CCCCC(=O)OC)cc3)C[C@@]21C | 1.8 nM | 
CC#C[C@]1(O)CC[C@H]2[C@@H]3CCC4=CC(=O)CCC4=C3[C@@H](c3ccc(OCCCCCCCCCBr)cc3)C[C@@]21C | 1 nM | 
CC#C[C@]1(O)CC[C@H]2[C@@H]3CCC4=CC(=O)CCC4=C3[C@@H](c3ccc(N(C)CCC(=O)OC)cc3)C[C@@]21C | 0.16 nM | 
CC#C[C@]1(O)CC[C@H]2[C@@H]3CCC4=CC(=O)CCC4=C3[C@@H](c3ccc(N(C)C(=O)CCCCC)cc3)C[C@@]21C | 0.69 nM | 
CC#C[C@]1(O)CC[C@H]2[C@@H]3CCC4=CC(=O)CCC4=C3[C@@H](c3ccc(N(C)CCCCCCO)cc3)C[C@@]21C | 0.06 nM | 0.071 nM

Compound | IC50 [1] | IC50 [2]
CC#C[C@]1(O)CC[C@H]2[C@@H]3CCC4=CC(=O)CCC4=C3[C@@H](c3ccc(N(C)CCCCCCOC(=O)CCC(=O)OC)cc3)C[C@@]21C | 0.17 nM | 
CC#C[C@]1(O)CC[C@H]2[C@@H]3CCC4=CC(=O)CCC4=C3[C@@H](c3ccc(N(C)CCCCCCCCC)cc3)C[C@@]21C | 1.4 nM | 0.38 nM
CC#C[C@]1(O)CC[C@H]2[C@@H]3CCC4=CC(=O)CCC4=C3[C@@H](c3ccc(N(C)C(=O)NCCCCCC(=O)N[C@@H](CC(C)C)C(=O)O)cc3)C[C@@]21C | 72 nM | 
CC#C[C@]1(O)CC[C@H]2[C@@H]3CCC4=CC(=O)CCC4=C3[C@@H](c3ccc(N(C)CCCO)cc3)C[C@@]21C | 0.12 nM | 0.105 nM
CC#C[C@]1(O)CC[C@H]2[C@@H]3CCC4=CC(=O)CCC4=C3[C@@H](c3ccc(O)cc3)C[C@@]21C | 1.3 nM | 
CC#C[C@]1(O)CC[C@H]2[C@@H]3CCC4=CC(=O)CCC4=C3[C@@H](c3ccc(N(C)CCC)cc3)C[C@@]21C | 0.27 nM | 0.025 nM
CC#C[C@]1(O)CC[C@H]2[C@@H]3CCC4=CC(=O)CCC4=C3[C@@H](c3ccc(N(C)CCCCCC)cc3)C[C@@]21C | 0.66 nM | 0.18 nM
CC#C[C@]1(O)CC[C@H]2[C@@H]3CCC4=CC(=O)CCC4=C3[C@@H](c3ccc(N(C)CCCCCCCC(=O)OC)cc3)C[C@@]21C | 0.47 nM | 
CC#C[C@]1(O)CC[C@H]2[C@@H]3CCC4=CC(=O)CCC4=C3[C@@H](c3ccc(N(C)C(=O)CCCC(=O)O)cc3)C[C@@]21C | 100 nM | 
CC#C[C@]1(O)CC[C@H]2[C@@H]3CCC4=CC(=O)CCC4=C3[C@@H](c3ccc(N(C)C(=O)NCCCCCC(=O)O)cc3)C[C@@]21C | 72 nM | 
CC#C[C@]1(O)CC[C@H]2[C@@H]3CCC4=CC(=O)CCC4=C3[C@@H](c3ccc(N(C)CCCOCc4ccc(C(N)=O)c(O)c4)cc3)C[C@@]21C | 0.46 nM | 
CC#C[C@]1(O)CC[C@H]2[C@@H]3CCC4=CC(=O)CCC4=C3[C@@H](c3ccc(N(C)CCCCCC(=O)OC)cc3)C[C@@]21C | 0.4 nM | 
CC#C[C@]1(O)CC[C@H]2[C@@H]3CCC4=CC(=O)CCC4=C3[C@@H](c3ccc(N(C)C(=O)CCCCC(=O)O)cc3)C[C@@]21C | 78 nM | 
CC#C[C@]1(O)CC[C@H]2[C@@H]3CCC4=CC(=O)CCC4=C3[C@@H](c3ccc(N(C)CCCCCC(=O)NCCCC)cc3)C[C@@]21C | 0.9 nM | 
CC#C[C@]1(O)CC[C@H]2[C@@H]3CCC4=CC(=O)CCC4=C3[C@@H](c3ccc(N(C)CCCOC(=O)CCC(=O)OC)cc3)C[C@@]21C | 1.2 nM | 
CC#C[C@]1(O)CC[C@H]2[C@@H]3CCC4=CC(=O)CCC4=C3[C@@H](c3ccc(N(C)CCCCCC4OCCO4)cc3)C[C@@]21C | 0.17 nM | 0.073 nM
CC#C[C@]1(O)CC[C@H]2[C@@H]3CCC4=CC(=O)CCC4=C3[C@@H](c3ccc(N(C)C(=S)Nc4ccc(Cl)cc4)cc3)C[C@@]21C | 0.16 nM | 
CC#C[C@]1(O)CC[C@H]2[C@@H]3CCC4=CC(=O)CCC4=C3[C@@H](c3ccc(N(C)CCC(=O)Nc4ccc(C(N)=O)c(O)c4)cc3)C[C@@]21C | 0.44 nM | 
CC#C[C@]1(O)CC[C@H]2[C@@H]3CCC4=CC(=O)CCC4=C3[C@@H](c3ccc(N(C)CCCCCCCC(=O)O)cc3)C[C@@]21C | 0.27 nM | 
CC#C[C@]1(O)CC[C@H]2[C@@H]3CCC4=CC(=O)CCC4=C3[C@@H](c3ccc(NC)cc3)C[C@@]21C [DESMETHYLMIFEPRISTONE] | 0.17 nM | 0.073 nM
